What all share (assay type): cell-based
The target in assay [1] is human α1H T-type channels (Homo sapiens, UniProt O95180). Kind of assay: T-type calcium channel block, whole cell patch clamp, α1H. Conditions: HEK cells stably expressing human α1H; mainly non-inactivated protocol; values above 10,000 nM represented as 10000. In short, it runs like this: (§1)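 Blockade of T-type current was measured in human α1G- or α1H-expressing HEK 293 cells using whole-cell recording with ~5 MΩ pipettes. Test compounds, dissolved in external solution containing 0.1-0.01% DMSO, were applied close to the cell, and block was examined under both non-inactivating and inactivating voltage protocols.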
Chain of human α1H T-type channels (O95180 whole entry): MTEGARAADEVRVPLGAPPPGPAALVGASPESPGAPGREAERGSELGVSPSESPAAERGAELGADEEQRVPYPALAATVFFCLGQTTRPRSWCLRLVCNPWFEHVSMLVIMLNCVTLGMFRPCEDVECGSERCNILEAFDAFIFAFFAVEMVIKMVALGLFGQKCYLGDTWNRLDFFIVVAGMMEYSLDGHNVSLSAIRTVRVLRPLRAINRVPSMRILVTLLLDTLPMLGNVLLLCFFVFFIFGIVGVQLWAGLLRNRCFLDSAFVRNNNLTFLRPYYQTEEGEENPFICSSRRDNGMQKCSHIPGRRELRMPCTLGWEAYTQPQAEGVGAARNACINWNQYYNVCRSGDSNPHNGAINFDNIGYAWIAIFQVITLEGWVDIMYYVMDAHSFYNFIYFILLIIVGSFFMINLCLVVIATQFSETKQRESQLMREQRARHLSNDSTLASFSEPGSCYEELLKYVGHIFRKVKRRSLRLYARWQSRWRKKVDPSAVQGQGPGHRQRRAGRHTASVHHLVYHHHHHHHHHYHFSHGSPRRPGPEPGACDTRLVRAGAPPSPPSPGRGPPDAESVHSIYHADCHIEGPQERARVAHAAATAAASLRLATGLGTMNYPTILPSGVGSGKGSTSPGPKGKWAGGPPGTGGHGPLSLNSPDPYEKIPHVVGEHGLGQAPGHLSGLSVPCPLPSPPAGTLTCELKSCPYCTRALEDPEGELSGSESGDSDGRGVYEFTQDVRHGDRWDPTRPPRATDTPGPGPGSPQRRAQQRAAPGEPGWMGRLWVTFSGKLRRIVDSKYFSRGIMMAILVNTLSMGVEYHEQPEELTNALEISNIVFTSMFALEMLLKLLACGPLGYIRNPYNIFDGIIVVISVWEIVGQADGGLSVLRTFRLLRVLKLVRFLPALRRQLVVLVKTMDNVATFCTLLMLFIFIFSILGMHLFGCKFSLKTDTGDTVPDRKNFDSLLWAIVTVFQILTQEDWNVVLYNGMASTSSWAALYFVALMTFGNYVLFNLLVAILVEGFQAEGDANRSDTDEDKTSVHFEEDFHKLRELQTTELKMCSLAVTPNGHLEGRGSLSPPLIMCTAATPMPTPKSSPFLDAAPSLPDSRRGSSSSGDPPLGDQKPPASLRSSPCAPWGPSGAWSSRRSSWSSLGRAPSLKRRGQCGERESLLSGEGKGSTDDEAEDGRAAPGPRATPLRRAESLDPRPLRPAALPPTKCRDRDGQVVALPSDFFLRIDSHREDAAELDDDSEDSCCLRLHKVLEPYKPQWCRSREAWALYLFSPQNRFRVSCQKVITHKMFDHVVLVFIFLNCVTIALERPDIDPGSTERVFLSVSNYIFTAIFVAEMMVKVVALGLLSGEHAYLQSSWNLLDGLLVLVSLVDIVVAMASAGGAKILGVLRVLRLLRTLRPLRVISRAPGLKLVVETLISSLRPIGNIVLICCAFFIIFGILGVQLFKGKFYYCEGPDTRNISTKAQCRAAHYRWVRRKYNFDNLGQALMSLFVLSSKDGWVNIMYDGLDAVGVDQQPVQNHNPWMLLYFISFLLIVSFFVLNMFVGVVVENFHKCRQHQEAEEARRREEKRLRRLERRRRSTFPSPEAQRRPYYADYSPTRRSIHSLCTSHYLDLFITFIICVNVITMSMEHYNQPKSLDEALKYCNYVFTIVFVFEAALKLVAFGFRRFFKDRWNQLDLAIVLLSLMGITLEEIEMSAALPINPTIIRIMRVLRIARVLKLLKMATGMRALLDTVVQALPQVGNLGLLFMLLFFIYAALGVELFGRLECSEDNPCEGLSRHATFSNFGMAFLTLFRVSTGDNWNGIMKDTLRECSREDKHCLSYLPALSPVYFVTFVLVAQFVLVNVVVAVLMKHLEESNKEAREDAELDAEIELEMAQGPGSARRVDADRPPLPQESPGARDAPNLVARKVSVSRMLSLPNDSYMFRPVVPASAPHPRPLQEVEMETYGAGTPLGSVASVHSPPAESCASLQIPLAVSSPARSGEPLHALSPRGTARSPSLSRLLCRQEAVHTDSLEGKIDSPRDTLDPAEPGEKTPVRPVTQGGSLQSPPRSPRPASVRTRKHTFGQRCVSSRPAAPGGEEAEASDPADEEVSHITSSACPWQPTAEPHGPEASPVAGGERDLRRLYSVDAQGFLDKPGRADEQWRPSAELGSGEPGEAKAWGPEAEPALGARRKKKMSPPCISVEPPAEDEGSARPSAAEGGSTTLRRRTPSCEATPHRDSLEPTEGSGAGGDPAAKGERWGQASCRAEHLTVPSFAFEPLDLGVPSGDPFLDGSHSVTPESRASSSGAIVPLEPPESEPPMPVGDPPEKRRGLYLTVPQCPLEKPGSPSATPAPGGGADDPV

The target of assay [2] is N-type calcium channel subunits (α1B, α2δ, and β3a) (Homo sapiens, UniProt Q00975). In words: Block of Cav2.2 channel, whole cell voltage clamp, manual and PatchXpress. The note with it: Table 5; table follows Assay Example 3 (whole cell voltage clamp / PatchXpress); assay not given. In short, it runs like this: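 Percent block taken as current amplitude ratio with versus without compound, applied in rising doses; IC50 fitted where one cell received multiple doses. Protocol: 50 ms pulses to +20 mV at 0.067 Hz from […] or −90 mV holding; P/n leak subtraction, no junction-potential correction; manual and PatchXpress recordings.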

In assay [3] the target is human α1G T-type channels (Homo sapiens, UniProt O43497). In words: T-type calcium channel block, whole cell patch clamp, α1G. The note with it: HEK cells stably expressing human α1G; mainly non-inactivated protocol; values above 10,000 nM represented as 10000. The method in brief:
as §1

Chain of human α1G T-type channels (O43497 whole entry): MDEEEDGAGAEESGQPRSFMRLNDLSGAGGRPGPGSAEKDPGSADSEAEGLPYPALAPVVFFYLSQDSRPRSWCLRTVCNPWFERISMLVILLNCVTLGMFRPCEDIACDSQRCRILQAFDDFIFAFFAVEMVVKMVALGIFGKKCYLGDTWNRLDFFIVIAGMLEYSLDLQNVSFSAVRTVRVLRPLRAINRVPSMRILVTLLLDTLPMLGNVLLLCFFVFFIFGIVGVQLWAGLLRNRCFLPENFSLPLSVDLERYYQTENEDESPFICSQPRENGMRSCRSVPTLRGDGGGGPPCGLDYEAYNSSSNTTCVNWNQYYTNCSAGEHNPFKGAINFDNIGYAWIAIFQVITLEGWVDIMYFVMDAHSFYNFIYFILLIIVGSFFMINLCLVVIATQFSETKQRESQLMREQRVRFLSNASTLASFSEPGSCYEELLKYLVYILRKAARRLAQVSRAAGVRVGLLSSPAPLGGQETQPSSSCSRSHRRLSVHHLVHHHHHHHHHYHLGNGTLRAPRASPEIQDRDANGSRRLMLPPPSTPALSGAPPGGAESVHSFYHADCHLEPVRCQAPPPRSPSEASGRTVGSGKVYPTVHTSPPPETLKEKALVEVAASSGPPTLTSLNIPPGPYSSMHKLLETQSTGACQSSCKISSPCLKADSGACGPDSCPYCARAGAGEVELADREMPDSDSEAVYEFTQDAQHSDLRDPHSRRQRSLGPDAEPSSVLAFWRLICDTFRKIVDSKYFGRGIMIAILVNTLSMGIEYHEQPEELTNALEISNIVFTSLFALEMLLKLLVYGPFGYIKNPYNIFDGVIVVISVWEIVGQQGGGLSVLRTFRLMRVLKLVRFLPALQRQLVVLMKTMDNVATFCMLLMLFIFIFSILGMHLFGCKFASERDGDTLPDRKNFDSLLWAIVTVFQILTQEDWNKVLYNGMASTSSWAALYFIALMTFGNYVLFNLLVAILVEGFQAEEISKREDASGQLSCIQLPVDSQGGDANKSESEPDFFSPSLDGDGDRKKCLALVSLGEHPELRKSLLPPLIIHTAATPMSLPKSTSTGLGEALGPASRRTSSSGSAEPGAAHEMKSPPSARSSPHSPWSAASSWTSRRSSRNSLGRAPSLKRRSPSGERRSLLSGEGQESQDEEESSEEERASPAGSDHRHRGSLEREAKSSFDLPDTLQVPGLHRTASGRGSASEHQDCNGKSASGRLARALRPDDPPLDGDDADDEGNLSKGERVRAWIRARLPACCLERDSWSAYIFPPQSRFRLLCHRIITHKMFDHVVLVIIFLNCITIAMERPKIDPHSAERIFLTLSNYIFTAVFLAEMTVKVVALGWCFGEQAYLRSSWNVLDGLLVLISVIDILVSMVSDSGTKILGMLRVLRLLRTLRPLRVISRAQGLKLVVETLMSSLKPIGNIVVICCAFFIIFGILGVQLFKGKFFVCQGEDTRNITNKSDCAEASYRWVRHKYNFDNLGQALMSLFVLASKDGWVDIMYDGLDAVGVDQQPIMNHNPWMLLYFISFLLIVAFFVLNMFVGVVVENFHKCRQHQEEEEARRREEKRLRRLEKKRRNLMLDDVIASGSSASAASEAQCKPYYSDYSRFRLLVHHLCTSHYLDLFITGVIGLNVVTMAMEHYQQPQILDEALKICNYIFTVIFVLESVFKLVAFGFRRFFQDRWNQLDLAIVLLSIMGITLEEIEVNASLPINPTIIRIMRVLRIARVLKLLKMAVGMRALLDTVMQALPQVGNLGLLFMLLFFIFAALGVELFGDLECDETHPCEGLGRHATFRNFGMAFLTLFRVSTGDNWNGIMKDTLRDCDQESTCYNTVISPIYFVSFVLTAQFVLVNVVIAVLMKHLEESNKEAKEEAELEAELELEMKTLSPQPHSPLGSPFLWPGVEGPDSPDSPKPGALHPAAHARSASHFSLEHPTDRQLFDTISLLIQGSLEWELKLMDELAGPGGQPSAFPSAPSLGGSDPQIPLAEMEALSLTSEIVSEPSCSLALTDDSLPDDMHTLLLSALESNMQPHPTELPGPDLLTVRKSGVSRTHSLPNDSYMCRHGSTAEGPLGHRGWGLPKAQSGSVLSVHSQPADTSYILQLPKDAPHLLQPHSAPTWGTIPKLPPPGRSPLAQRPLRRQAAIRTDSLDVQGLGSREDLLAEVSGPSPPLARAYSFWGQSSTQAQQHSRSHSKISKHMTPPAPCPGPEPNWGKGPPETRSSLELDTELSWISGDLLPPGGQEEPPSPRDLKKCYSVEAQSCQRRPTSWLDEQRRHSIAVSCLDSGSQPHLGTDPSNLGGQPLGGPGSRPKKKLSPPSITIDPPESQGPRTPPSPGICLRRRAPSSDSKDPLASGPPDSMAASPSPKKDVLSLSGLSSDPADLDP

Take `O=S(=O)(NC[C@H]1C[C@H](S(=O)(=O)c2cccc(C(F)(F)F)c2)C1)c1cccc(C(F)(F)F)c1` [Compound 427, 3-(trifluoromethyl)-N-(((1R,3R)-3-(3-(trifluoromethyl)phenylsulfonyl)cyclobutyl)methyl)benzenesulfonamide]: the IC50 in assay [1] was 880 nM; in assay [2] it was 920 nM; in assay [3], 3820 nM.
Turning to `CC1(NC(=O)c2ccc(C(F)(F)F)cc2S(C)(=O)=O)CCC(S(=O)(=O)c2cccc(C(F)(F)F)c2)CC1` (stereo not drawn) [Compound 311, N-(1-methyl-4-(3-(trifluoromethyl)phenylsulfonyl)cyclohexyl)-2-(methylsulfonyl)-4-(trifluoromethyl)benzamide], the results for the IC50 in assay [1], in assay [2] and in assay [3] were 8500 nM, 650 nM and 5080 nM, respectively.
`COc1cc(Cl)ccc1C(=O)N[C@H]1CC[C@H](S(=O)(=O)c2cccc(C(F)(F)F)c2)CC1` [Compound 127, 4-chloro-2-methoxy-N-((1R,4R)-4-(3-(trifluoromethyl)phenylsulfonyl)cyclohexyl)benzamide]: the IC50 in assay [1] turned out to be 1560 nM; in assay [2] it was 1290 nM; in assay [3], 1140 nM.
On to `O=C(NC[C@H]1C[C@H](S(=O)(=O)c2cccc(C(F)(F)F)c2)C1)c1ccc(C(F)(F)F)cn1` [Compound 358, 5-(trifluoromethyl)-N-(((1R,3R)-3-(3-(trifluoromethyl)phenylsulfonyl)cyclobutyl)methyl)picolinamide], for which the IC50 in assay [1] was > 10000 nM; in assay [2] it was 190 nM; in assay [3] it was 8370 nM.
`O=C(N[C@H]1CC[C@@](F)(S(=O)(=O)c2cccc(C(F)(F)F)c2)CC1)c1cc2cnccc2nc1C(F)(F)F` [Compound 266, N-((1S,4S)-4-fluoro-4-(3-(trifluoromethyl)phenylsulfonyl)cyclohexyl)-2-(trifluoromethyl)-1,6-naphthyridine-3-carbosamide]: the IC50 came to 5560 nM in assay [1], 2440 nM in assay [2] and 3670 nM in assay [3].
For the molecule `O=C(CNC[C@H]1CC[C@@H](S(=O)(=O)c2cccc(C(F)(F)F)c2)CC1)NC1CCCCC1` [Compound 36, N-cyclohexyl-2-(((1S,4S)-4-(3-(trifluoromethyl)phenylsulfonyl)cyclohexyl)methylamino)acetamide], the IC50 came to 5110 nM in assay [1], 740 nM in assay [2] and 5250 nM in assay [3].
As to `O=C(CN[C@H]1C[C@@H](S(=O)(=O)c2cccc(C(F)(F)F)c2)C1)NC1CCC(F)(F)CC1` [Compound 431, N-(4,4-difluorocyclohexyl)-2-((1S,3S)-3-(3-(trifluoromethyl)phenylsulfonyl)cyclobutylamino) acetamide], the IC50 in assay [1] worked out at 240 nM; in assay [2] it was 1840 nM; in assay [3] it was 920 nM.
On the same counts, the results for “4-chloro-2-(methylsulfonyl)-N- ((1R,4R)-4-(3- (trifluoromethyl)phenylsulfonyl) cyclohexyl)benzamide [Compound 121]” are 930 nM, 3730 nM and 720 nM.
For the molecule `CC(C)S(=O)(=O)c1cc(C(F)(F)F)cnc1C(=O)N[C@H]1CC[C@@H](CS(=O)(=O)c2cccc(C(F)(F)F)c2)CC1` [Compound 342, 3-(isopropylsulfonyl)-5-(trifluoromethyl)-N-((1S,4S)-4-((3-(trifluoromethyl)phenylsulfonyl)methyl)cyclohexyl)picolinamide], the half-maximal inhibitory concentration (IC50) in assay [1] is 760 nM; in assay [2], 720 nM; in assay [3], 1710 nM.
As for `CC1(NC(=O)c2ccc(F)c(C(F)(F)F)c2)CCC(S(=O)(=O)c2cccc(C(F)(F)F)c2)CC1` (stereo not drawn) [Compound 309, 4-fluoro-N-(1-methyl-4-(3-(trifluoromethyl)phenylsulfonyl)cyclohexyl)-3-(trifluoromethyl)benzamide], the IC50 in assay [1] is > 10000 nM; in assay [2], 1390 nM; in assay [3], 9900 nM.

(Values after patent US20120245137A1 (Zalicus Pharmaceuticals Ltd., priority 2009, published 2012).)
